pIC50: −log10 of the molar value.
target: T1, Menin-MLL (Homo sapiens, UniProt O00255); assay: Inhibitory activity against Menin-MLL binding (fluorescence polarization); details: Menin-MLL IC50, fluorescence polarization; 150 nM His-Menin, 15 nM FITC-MLL; 25°C for 60 min
T1 construct: His-Menin (M1-L615 end); purchased BIORTUS BP9210
T1 sequence (O00255 1-615 isoform O00255-1): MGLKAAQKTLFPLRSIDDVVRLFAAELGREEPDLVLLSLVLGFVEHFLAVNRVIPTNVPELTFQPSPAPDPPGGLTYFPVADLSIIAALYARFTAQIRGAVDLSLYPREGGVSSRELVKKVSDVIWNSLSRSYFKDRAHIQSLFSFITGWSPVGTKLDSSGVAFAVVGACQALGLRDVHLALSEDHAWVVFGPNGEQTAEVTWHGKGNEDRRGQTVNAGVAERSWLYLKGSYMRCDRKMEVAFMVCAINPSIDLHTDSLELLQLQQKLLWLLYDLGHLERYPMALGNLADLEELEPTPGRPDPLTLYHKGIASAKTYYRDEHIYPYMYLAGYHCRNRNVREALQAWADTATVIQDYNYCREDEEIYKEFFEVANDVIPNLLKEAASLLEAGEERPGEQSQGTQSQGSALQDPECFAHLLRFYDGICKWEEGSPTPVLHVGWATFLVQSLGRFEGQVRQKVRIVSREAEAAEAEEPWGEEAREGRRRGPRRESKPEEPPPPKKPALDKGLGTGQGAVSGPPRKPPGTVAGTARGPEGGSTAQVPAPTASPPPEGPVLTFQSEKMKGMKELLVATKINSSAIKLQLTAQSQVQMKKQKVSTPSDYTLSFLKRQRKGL
Method in brief: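 Fluorescence polarization competition: compound and 150 nM His-tagged menin (residues M1-L615) sit 15 min at 25 °C in pH 7.5 HEPES buffer with NaCl, DTT and BSA; 15 nM FITC-labelled MLL peptide then binds for 60 min. IC50 fitted sigmoidally from mP values, duplicate wells.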

SMILES	pIC50
CCN(C(=O)c1cc(F)ccc1-c1cc(C2CN(C(=O)[C@@H](NC)C(C)C)C2)cn2c(C)nc(F)c12)C(C)C [Example 315]	7.41
CCN(C(=O)c1cc(F)ccc1-c1cc(C2CCN(C[C@H]3CC[C@H](NS(=O)(=O)CC)CC3)C2)cc2cncn12)C(C)C (mixture of isomers) [Example 25, N-ethyl-5-fluoro-N-isopropyl-2-[7-(1-{[(1r,4r)-4-ethanesulfonamidocyclohexyl]methyl}pyrrolidin-3-yl)imidazo[1,5-a]pyridin-5-yl]benzamide]	7.72

same assay, conditions: fluorescence polarization; 150 nM His-Menin, 15 nM FITC-MLL; 25°C for 60 min; read-out: Menin-MLL IC50

SMILES	pIC50
COCCN(C)CCC[C@@H](C(C)C)N1CC(c2cc(-c3ccc(F)cc3C(=O)N3CCOC[C@H]3C)c3c(F)nc(C)n3c2)C1 [Example 200-2]	7.12
CCN(C(=O)c1cc(F)ccc1-c1cc(N2CCN(C(=O)[C@H]3CCCN3)CC2)cn2c(C)ncc12)C(C)C [Example 106]	6.82
Cc1nc(F)c2c(-c3ccc(F)cc3C(=O)N3CCOC[C@H]3C)cc(C3CN([C@H](C)C4CCOCC4)C3)cn12 [Example 238-1, (3R)-4-[5-fluoro-2-(1-fluoro-3-methyl-6-{1-[(1R)-1-(oxacyclohexan-4-yl)ethyl]azacyclobutan-3-yl}imidazo[1,5-a]pyridin-8-yl)benzoyl]-3-methylmorpholine]	7.10
CCN(C(=O)c1cc(F)ccc1-c1nc(C2CN(C(CCCN3CCN(CCO)CC3)C(C)C)C2)cn2c(C)ncc12)C(C)C (stereo not shown) [Example 491, N-ethyl-5-fluoro-2-[6-(1-{6-[4-(2-hydroxyethyl)piperazin-1-yl]-2-methylhexan-3-yl}azacyclobutan-3-yl)-3-methylimidazo[1,5-a]pyrazin-8-yl]-N-(isopropyl)benzamide]	6.89
C=C1C[C@@H]2CC[C@H]1[C@@H](C(=O)N1CCC(c3cc(-c4ccc(F)cc4C(=O)N(CC)C(C)C)c4cncn4c3)C1)N2 (stereo partly drawn) [Example 23, N-ethyl-5-fluoro-2-(6-{1-[(1S,3S,4R)-5-methylene-2-azabicyclo[2.2.2]octan-3-carbonyl]pyrrolidin-3-yl}imidazo[1,5-a]pyridin-8-yl)-N-(isopropyl)benzamide]	6.99
CCN(C(=O)c1cc(F)ccc1-c1cc(C2CN([C@H](C)C3CCN(C(C)=O)CC3)C2)cn2c(C)ncc12)C(C)C [Example 281-2]	7.10
COCCN(C)CCC[C@@H](C(C)C)N1CC(c2cc(-c3ccc(F)cc3C(=O)N3[C@H](C)COC[C@H]3C)c3cnn(C)c3c2)C1 [Example 186-1, [(4S)-4-[3-(4-{2-[(3R,5R)-3,5-dimethylmorpholin-4-carbonyl]-4-fluorophenyl}-1-methyl-1H-indazol-6-yl)azacyclobutan-1-yl]-5-methylhexyl](2-methoxyethyl)methylamine]	6.58
Cc1nc(F)c2c(-c3ccc(F)cc3C(=O)N3CCOC[C@H]3C)cc(C3CN(CC4(O)CCOCC4)C3)cn12 [Example 239]	6.70
COC1CCN(CCC[C@@H](C(C)C)N2CC(c3cc(-c4ccc(F)cc4C(=O)N4CCOC[C@H]4C)c4cnn(C)c4c3)C2)CC1 [Example 181-1, 4-{4-fluoro-2-[(3R)-3-methylmorpholin-4-carbonyl]phenyl}-6-{1-[(3S)-6-(4-methoxypiperidin-1-yl)-2-methylhexan-3-yl]azacyclobutan-3-yl}-1-methyl-1H-indazole]	6.21

Second part, the molecule after the results:

pIC50	SMILES
7.50	COCC(=O)N1CCC(CN2CC(c3cc(-c4ccc(F)cc4C(=O)N4CCOC[C@H]4C)c4c(F)nc(C)n4c3)C2)CC1 [Example 241, 1-(4-{[3-(1-fluoro-8-{4-fluoro-2-[(3R)-3-methylmorpholin-4-carbonyl]phenyl}-3-methylimidazo[1,5-a]pyridin-6-yl)azacyclobutan-1-yl]methyl}piperidin-1-yl)-2-methoxyethan-1-one]
7.80	CC(=O)N1CCN(CCC[C@H](C(C)C)N2CC(c3cc(-c4ccc(F)cc4C(=O)N4CCOC[C@H]4C)c4c(F)nc(C)n4c3)C2)[C@H](C)C1 [Example 328]
7.96	CCN(C(=O)c1cc(F)ccc1-c1cc(C2CN(C(CC[C@@H]3COCCN3CCO)C(C)C)C2)cn2c(C)ncc12)C(C)C (stereo partly drawn) [Example 469, N-ethyl-5-fluoro-2-[6-(1-{1-[(3R)-4-(2-hydroxyethyl)morpholin-3-yl]-4-methylpentan-3-yl}azacyclobutan-3-yl)-3-methylimidazo[1,5-a]pyridin-8-yl]-N-(isopropyl)benzamide]
8.70	CCN(C(=O)c1cc(F)ccc1-c1cc(C2CN([C@H](CCCN3CC4CC(C3)N4C)C(C)C)C2)cn2c(C)ncc12)C(C)C [Example 392]
8.51	CCN(C(=O)c1cc(F)ccc1-c1cc(C2CN(C(CCCN3C[C@H]4C[C@@H]3CO4)C(C)C)C2)cc2c(C)ncn12)C(C)C (stereo partly drawn) [Example 465, N-ethyl-5-fluoro-2-[1-methyl-7-(1-{2-methyl-6-[(1R,4R)-2-oxa-5-azabicyclo[2.2.1]heptan-5-yl]hexan-3-yl}azacyclobutan-3-yl)imidazo[1,5-a]pyridin-5-yl]-N-(isopropyl)benzamide]
7.41	Cc1nc(F)c2c(-c3ccc(F)cc3C(=O)N3CCOC[C@H]3C)cc(C3CN([C@H](CN4CCN(C(=O)OC(C)(C)C)CC4)C(C)C)C3)cn12 [Example 366-2, 4-[(2S)-2-[3-(1-fluoro-8-{4-fluoro-2-[(3R)-3-methylmorpholin-4-carbonyl]phenyl}-3-methylimidazo[1,5-a]pyridin-6-yl)azacyclobutan-1-yl]-3-methylbutyl]piperazin-1-tert-butyl carboxylate]
7.77	COC[C@H]1CN(CCC[C@@H](C(C)C)N2CC(c3cc(-c4ccc(F)cc4C(=O)N(C(C)C)C(C)C)c4cnc(C)n4c3)C2)CCN1 [Example 504-1, 5-fluoro-2-(6-{1-[(3S)-6-[(3R)-3-(methoxymethyl)piperazin-1-yl]-2-methylhexan-3-yl]azacyclobutan-3-yl}-3-methylimidazo[1,5-a]pyridin-8-yl)-N,N-di(isopropyl)benzamide]
8.96	CCN(C(=O)c1cc(F)ccc1-c1cc(C2CN([C@H](CCCN3CC4COCC(C3)N4C(=O)OC(C)(C)C)C(C)C)C2)cn2c(C)ncc12)C(C)C [Example 478]
8.03	CC(=O)N1C[C@H]2C[C@@H]1CN2CCC[C@H](C(C)C)N1CC(c2cc(-c3ccc(F)cc3C(=O)N3CCOC[C@H]3C)c3c(F)nc(C)n3c2)C1 [Example 332, 1-[(1R,4R)-5-[(4R)-4-[3-(1-fluoro-8-{4-fluoro-2-[(3R)-3-methylmorpholin-4-carbonyl]phenyl}-3-methylimidazo[1,5-a]pyridin-6-yl)azacyclobutan-1-yl]-5-methylhexyl]-2,5-diazabicyclo[2.2.1]heptan-2-yl]ethan-1-one]
7.49	CCN(C(=O)c1cc(F)ccc1-c1cc(C2CN([C@@H](CCCN3CCN(C)CC3)C(C)C)C2)cn2c(C)nc(F)c12)C(C)C [Example 312-1]
7.27	CCS(=O)(=O)N[C@@H]1CC[C@@H](CN2CC[C@H](c3cc(-c4ccc(F)cc4C(=O)N(CC(F)F)C(C)C)c4cnc(C)n4c3)C2)OC1 [Example 163-2, N-(2,2-difluoroethyl)-2-{6-[(3R)-1-{[(2S,5R)-5-ethanesulfonamidooxacyclohexan-2-yl]methyl}pyrrolidin-3-yl]-3-methylimidazo[1,5-a]pyridin-8-yl}-5-fluoro-N-(isopropyl)benzamide]
7.33	CCN(C(=O)c1cc(F)ccc1-c1cc(N2CCN(C(=O)[C@@H]3CCCN3)CC2)cn2c(C)ncc12)C(C)C [Example 92]
7.84	CCN(C(=O)c1cc(F)ccc1-c1cc(C2CN([C@@H](CCCN(C)CCOC)C(C)C)C2)cn2c(C)nc(F)c12)C(C)C [Example 307-1, N-ethyl-5-fluoro-2-(1-fluoro-6-{1-[(3S)-6-[(2-methoxyethyl)(methyl)amino]-2-methylhexan-3-yl]azacyclobutan-3-yl}-3-methylimidazo[1,5-a]pyridin-8-yl)-N-(isopropyl)benzamide]
7.21	CCS(=O)(=O)N[C@H]1CC[C@H](CCN2CC(c3cc(-c4ccc(F)cc4C(=O)N4CCOC[C@H]4C)c4cnn(C)c4c3)C2)CC1 [Example 160]
7.96	CCN(C(=O)c1cc(F)ccc1-c1cc(C2CN([C@H](C)C3CCN(C(C)=O)CC3)C2)cn2c(C)nc(F)c12)C(C)C [Example 288-1]
7.48	CCN(C(=O)c1cc(F)ccc1-c1cc(C2CN([C@H](CCCN3CCN(C(C)=O)CC3)C(C)C)C2)cc2c1cnn2C)C(C)C [Example 407]
8.66	CCN(C(=O)c1cc(F)ccc1-c1cc(C2CN([C@H](CCCN3CCN(C4(C#N)COC4)CC3)C(C)C)C2)cn2c(C)ncc12)C(C)C [Example 487, 2-(6-{1-[(3R)-6-[4-(3-cyanooxacyclobutan-3-yl)piperazin-1-yl]-2-methylhexan-3-yl]azacyclobutan-3-yl}-3-methylimidazo[1,5-a]pyridin-8-yl)-N-ethyl-5-fluoro-N-(isopropyl)benzamide]

Reference: patent publication EP4782453A1 (Beyang Therapeutics Co., Ltd., priority 2023, dated 2025)
